Reference: patent US8518956B2, “1-(1-(2-ethoxyethyl)-3-ethyl-7-(4-methylpyridin-2-ylamino)-1H-pyrazolo[4,3-d]pyrimidin-5-yl) piperidine-4-carboxylic acid and salts thereof” (priority 2005, dated 2013)

Key:
PDE5 enzyme = target: T1, PDE5 enzyme (Homo sapiens, UniProt O76074); experiment: Method 1A: Alternative Human Platelet PDE5 Enzyme Inhibition Scintillation Proximity Assay; type: biochemical; conditions: METHOD 1a: PDE5 IC50, Table D, WO2004096810 examples
T1 construct: The PDE5 enzyme isolated from human platelets; from tissue; host or cells: human platelets
Method: Method 1A: Alternative Human Platelet PDE5 Enzyme Inhibition Scintillation Proximity Assay
PDE5 IC50 Assay: 96-Well Microtiter Plate Format
• Buffer A: 20 mM Tris-HCl, 5 mM MgCl2, pH 7.4 • Buffer B: 2 mg/ml BSA in Buffer A (enzyme buffer) • cGMP substrate: Final concentration of 50 nM in assay The amount of ^3H-labeled substrate added depends upon the specific activity of [^3H]cGMP, and it is diluted in Buffer A. • PDE enzyme: Prepared in Buffer B. The dilution factor is determined by enzyme activity. • SPA beads: 4 mg/ml suspension prepared in dH2O.
Stocks of standard and test compound are prepared at 2 mM in 100% DMSO. […] 27 μl of Buffer A are added to the wells of the assay plates. From the dilution plate, 3 μl of diluted compound is delivered in duplicate or 3 μl of 100% DMSO (for positive and negative controls) are added. 30 μl of enzyme are added. For the negative control wells, Buffer B is substituted in place of the enzyme. 30 μl of labeled substrate are added to all wells.
After incubating for 60 minutes at room temperature, the reaction is stopped with the addition of 30 μl of the yttrium silicate beads. These beads are dense and require constant agitation while being added to the plate. The plates are sealed and shaken on a plate shaker for fifteen minutes to allow the beads to bind the GMP product.
After allowing the beads to settle for 30 minutes, plates are read on a NXT TopCount scintillation counter and the data are analyzed as follows. Percent inhibition values are calculated using the means of the 0% and 100% controls on each plate. The estimates of the 4-parameters of the logistic, sigmoid dose-response model are then calculated using the well-level percent inhibition value for the compound.

PDE11 enzyme = target: T2, PDE11 enzyme (Homo sapiens, UniProt Q9HCR9, DUP921-921); experiment: Method 3A: Alternative Human Recombinant PDE11 Enzyme Inhibition Scintillation Proximity Assay (SPA); type: biochemical; conditions: Table F, WO2004096810 examples
T2 construct: FLAG (N); made in house; host or cells: Sf9 insect cells (baculovirus, pFastBac)
T2 sequence (Q9HCR9 with tags, fused parts or gaps DUP921-921 limits assumed): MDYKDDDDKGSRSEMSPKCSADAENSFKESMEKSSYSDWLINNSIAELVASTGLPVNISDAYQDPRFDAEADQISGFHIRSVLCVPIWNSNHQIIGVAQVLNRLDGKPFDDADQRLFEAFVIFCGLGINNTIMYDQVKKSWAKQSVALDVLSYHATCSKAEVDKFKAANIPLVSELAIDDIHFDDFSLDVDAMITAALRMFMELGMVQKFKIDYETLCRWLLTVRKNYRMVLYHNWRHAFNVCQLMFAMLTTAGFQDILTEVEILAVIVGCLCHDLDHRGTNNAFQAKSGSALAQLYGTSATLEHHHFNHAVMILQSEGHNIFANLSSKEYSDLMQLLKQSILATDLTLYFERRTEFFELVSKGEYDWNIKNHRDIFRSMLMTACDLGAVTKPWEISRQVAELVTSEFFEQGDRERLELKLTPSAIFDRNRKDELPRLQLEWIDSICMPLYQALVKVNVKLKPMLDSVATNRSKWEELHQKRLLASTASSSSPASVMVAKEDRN
Method: Incubate at 27° C. with 220 rpm shaking for 48 hours. Harvest the infected cells by pelleting at 2000 rpm for 10 minutes at 4° C. Store the infected cell pellet at −80° C. until ready for purification. Resuspend the thawed cell pellets to 1×10^7 cells/ml (=20 ml buffer consisting of 20 mM Hepes (pH7.2), 1 mM EDTA, 20 mM sucrose, 150 mM NaCl and protease inhibitor tablets). Mix thoroughly and allow to stand on ice for 10 minutes. Sonicate for 5×5 seconds, on ice. Spin the mixture at 12,000 rpm for 10 minutes at 4° C. in SS34. Store the insoluble pellet at −80° C., and proceed to the purification of the soluble material. • (b) Purification: Prepare the column (1.0 cm diameter, Kontes) by rinsing the empty column twice with TBS. Then mix beads (Anti-FLAG M2 Agarose, Sigma) with TBS and add to the column—allow the beads to settle. Wash the column with 3 column volumes of 0.1M glycine (pH3.5). […] Apply the extract to the column and allow the extract to enter by gravity flow. Reapply the flow-through. Wash the column with 15 column volumes of TBS. Elute the protein with 5×1 ml aliquots of FLAG peptide (Sigma) (i.e., 100 ug/ml in TBS). Elute the remaining protein with 1 ml 0.1M glycine, and immediately add 25 ul 1M Tris pH8 to neutralize. Method 3A: Alternative Human Recombinant PDE11 Enzyme Inhibition Scintillation Proximity Assay (SPA)

[1] = tested on: Chinese hamster ovary (CHO) cells; experiment: Method 7: Micronucleus Assay; type: cell-based; set-up: key: Negative: A negative result identifies no genotoxic hazard defined by the assays specific endpoint; Positive: A positive result identifies a genotoxic hazard defined by the assays specific endpoint; Equivocal: fails to display a negative or positive result as defined by established evaluation criteria; Inconclusive: the test compound has been evaluated in an invalid assay test; conditions: in vitro, with and without S9
Method: Method 7: Micronucleus Assay
An in vitro micronucleus assay can be used to determine the mutagenic potential of a test compound. This assay detects chromosome abnormalities resulting from exposure to a test compound by measuring the formation of small membrane-bound DNA fragments such as micronuclei in the cytoplasm of interphase cells.
The assay is conducted using Chinese hamster ovary (CHO) cells under different test conditions in the absence and presence of metabolic activation. Concordance in outcomes between this screening assay and in vitro cytogenetics is around 85%. Direct (−S9) testing is conducted using 24 hour or 3 hour continuous treatments, whereas testing with metabolic activation (+S9) involves a 3 hour treatment. Clastogenicity is indicated by an increase in numbers of micronucleated cells in the first interphase after exposure (in cytokinesis-blocked binucleated cells). The results are compared to the level of cytotoxicity (measured by the proportion of binucleated cells) a test compound produces. […] A test compound displaying a negative response has not fulfilled specific evaluation criteria for the assay which may include one or both of the following: 1) a reproducible concentration dependent increase in the specific assay endpoint when compared to a negative (vehicle) control and/or 2) one or more test concentrations achieving a minimum fold increase in the specific endpoint over controls. • Positive—A positive result identifies a genotoxic hazard defined by the assays specific endpoint (ex. positive in vitro micronucleus). A test compound displaying a positive response has fulfilled specific evaluation criteria for the assay which may include one or both of the following: 1) a reproducible concentration dependent increase in the specific assay endpoint when compared to a negative (vehicle) control and/or 2) one or more test concentrations achieving a minimum fold increase in the specific endpoint over controls. • Equivocal—An equivocal result is reserved for situations where the test compound has been evaluated in a valid assay test or tests (i.e. assay acceptability criteria satisfactory), but fails to display a negative or positive result as defined by established evaluation criteria. This may convey the presence of a weak positive response that requires additional repeat testing or eventual confirmatory testing case-by-case. • Inconclusive—An inconclusive result is reserved for situations where the test compound has been evaluated in an invalid assay test (i.e. assay acceptability criteria unsatisfactory for technical reasons, ex. negative or positive controls fail to respond appropriately). Repeat testing is recommended in order to establish a valid assay test result.

SMILES | IC50 (PDE5 enzyme) [nM] | IC50 (PDE11 enzyme) [nM] | METHOD 7: MICRONUCLEUS ASSAY [1] | METHOD 7: MI[…] [1]
Cc1ccnc(Nc2nc(N3CCC(C(=O)O)CC3)nc3c(C)nn(CCOCC(F)(F)F)c23)c1 [WO2004096810 Example 261] | 0.115 | 585 | Positive | –
Cc1cc(Nc2nc(N3CCC(C(=O)O)CC3)nc3c(C)nn(CCOCC(F)(F)F)c23)ncn1 [WO2004096810 Example 262] | 0.0755 | 608 | – | Equivocal
CCc1nn(CCOCC(F)(F)F)c2c(Nc3cc(C)ncn3)nc(N3CCC(C(=O)O)CC3)nc12 [WO2004096810 Example 263] | 0.0197 | 384 | Positive | –
